Peptide text beside a SMILES is read from it. * marks the point of attachment. Dansyl = CN(C)c1cccc2c(S(=O)(=O)*)cccc12
Columns and labels:
fixed Caco-2 cells = test: Inhibition of GST-peptide fusion binding to fixed Caco-2 cells by synthetic peptides; details: peptide from 100 μg/ml serially diluted; GST fusion 10 μg
Excerpt: Caco-2 cells were fixed, treated with phenylhydrazine and blocked as described above. […] GST-PAX2 binding was inhibited by ZElan032, ZElan033, and ZElan035.

[1] = system: P100 membrane fractions derived from Caco-2 cells; test: Dansylated peptide ELISA: relative binding of PAX2 and HAX42 peptides to P100 (ratio to ZElan021); details: ratio to ZElan021 = 1.00; for Binding value at 50 μg/ml (Jackson Ab) / Binding value at 50 μg/ml (Southern Ab) / Binding value at 20 μg/ml / Binding value at 50 μg/ml: PAX2 peptides; for Binding value at 25 μg/ml: HAX42 peptides
Method: The peptides and proteins were analyzed by a dansylated peptide ELISA method in which 96 well plates were coated overnight at 4° C. with 100 μl/well coating protein (normally 100 μg/ml P100 membrane fraction) in 0.05M carbonate buffer pH9.6. Nonspecific binding was blocked using 200 μl/well, 2% Marvel/PBS for 2 hours at 37° C. prior to incubation with dansylated peptides. The plates were washed three times with PBS/0.05% Tween 20 and after each subsequent incubation step. […] A buffer blank control was included to ensure that background binding to plastic was not due to the antibodies used in the assay system. […] The plates were then incubated with an anti-mouse X-HRP conjugated antibody (Southern Biotech 1060-05) at a 1:10,000 dilution in blocking solution, 100 μl/well for 1 hour at room temperature. Plates were developed using 75 μl/well Bionostics TMB substrate and incubated for approximately 10 minutes. The developing reaction was stopped using Bionostics Red Stop solution (25 μl/well), and the optical density of the plates was read at 650nm.

Molecule	inhibition of GST-P31 binding (fixed Caco-2 cells)	Binding value at 50 μg/ml (Jackson Ab) [1]	Binding value at 50 μg/ml (Southern Ab) [1]	Binding value at 20 μg/ml ([1]; first 20 μg/ml column)	Binding value at 50 μg/ml ([1]; first 50 μg/ml column)	Binding value at 50 μg/ml ([1]; second 50 μg/ml column)	Binding value at 20 μg/ml ([1]; second 20 μg/ml column)	Binding value at 25 μg/ml ([1]; first 25 μg/ml column)	Binding value at 25 μg/ml ([1]; second 25 μg/ml column)	Binding value at 25 μg/ml ([1]; third 25 μg/ml column)
C[C@H](NC(=O)[C@H](CC(N)=O)NC(=O)[C@H](CCC(=O)O)NC(=O)[C@@H](N)CCCCNS(=O)(=O)c1cccc2c(N(C)C)cccc12)C(=O)N[C@@H](CC(N)=O)C(=O)N[C@H](C(=O)N[C@@H](CCCNC(=N)N)C(=O)N[C@@H](CCCCN)C(=O)N[C@@H](CO)C(=O)N[C@@H](CO)C(=O)N[C@@H](CCCNC(=N)N)C(=O)N[C@@H](CO)C(=O)N[C@@H](CC(N)=O)C(=O)N1CCC[C@H]1C(=O)N[C@@H](CCCNC(=N)N)C(=O)NCC(=O)N[C@@H](CCCNC(=N)N)C(=O)N[C@@H](CCCNC(=N)N)C(=O)N[C@@H](Cc1c[nH]cn1)C(=O)N1CCC[C@H]1C(=O)NCC(N)=O)[C@@H](C)O [ZElan028] (H-K(Dansyl)ENANTRKSSRSNPRGRRHPG-NH2)	inhibited									
CC(C)C[C@H](NC(=O)[C@H](CCCNC(=N)N)NC(=O)[C@H](CCCNC(=N)N)NC(=O)[C@H](CC(N)=O)NC(=O)[C@H](Cc1c[nH]cn1)NC(=O)[C@H](CO)NC(=O)[C@H](C)NC(=O)[C@@H](N)CCCCNS(=O)(=O)c1cccc2c(N(C)C)cccc12)C(=O)N[C@@H](CCCNC(=N)N)C(=O)N[C@H](C(=O)N[C@@H](CCCNC(=N)N)C(N)=O)[C@@H](C)O [ZElan073] (H-K(Dansyl)ASHNRRLRTR-NH2)		0.66	0.49	0.07	−0.11	0.49				
CC(C)C[C@H](NC(=O)[C@H](CCCNC(=N)N)NC(=O)[C@H](CCCNC(=N)N)NC(=O)[C@H](CC(N)=O)NC(=O)[C@H](Cc1c[nH]cn1)NC(=O)[C@H](C)NC(=O)[C@H](CO)NC(=O)[C@@H](N)CCCCNS(=O)(=O)c1cccc2c(N(C)C)cccc12)C(=O)N[C@@H](CCCNC(=N)N)C(=O)N[C@H](C(=O)N[C@@H](CCCNC(=N)N)C(N)=O)[C@@H](C)O [ZElan074] (H-K(Dansyl)SAHNRRLRTR-NH2)		0.71	0.48	0.06	0.82	0.52				
CC(C)C[C@H](NC(=O)[C@H](CCCNC(=N)N)NC(=O)[C@H](CCCNC(=N)N)NC(=O)[C@H](CC(N)=O)NC(=O)[C@H](C)NC(=O)[C@H](CO)NC(=O)[C@H](CO)NC(=O)[C@@H](N)CCCCNS(=O)(=O)c1cccc2c(N(C)C)cccc12)C(=O)N[C@@H](CCCNC(=N)N)C(=O)N[C@H](C(=O)N[C@@H](CCCNC(=N)N)C(N)=O)[C@@H](C)O [ZElan075] (H-K(Dansyl)SSANRRLRTR-NH2)		0.47	0.32	0.13	0.52	0.38				
CC(C)C[C@H](NC(=O)[C@H](CCCNC(=N)N)NC(=O)[C@H](CCCNC(=N)N)NC(=O)[C@H](C)NC(=O)[C@H](Cc1c[nH]cn1)NC(=O)[C@H](CO)NC(=O)[C@H](CO)NC(=O)[C@@H](N)CCCCNS(=O)(=O)c1cccc2c(N(C)C)cccc12)C(=O)N[C@@H](CCCNC(=N)N)C(=O)N[C@H](C(=O)N[C@@H](CCCNC(=N)N)C(N)=O)[C@@H](C)O [ZElan076] (H-K(Dansyl)SSHARRLRTR-NH2)		0.60	0.42	0.08	1.00	0.41				
CC(C)C[C@H](NC(=O)[C@H](CCCNC(=N)N)NC(=O)[C@H](C)NC(=O)[C@H](CC(N)=O)NC(=O)[C@H](Cc1c[nH]cn1)NC(=O)[C@H](CO)NC(=O)[C@H](CO)NC(=O)[C@@H](N)CCCCNS(=O)(=O)c1cccc2c(N(C)C)cccc12)C(=O)N[C@@H](CCCNC(=N)N)C(=O)N[C@H](C(=O)N[C@@H](CCCNC(=N)N)C(N)=O)[C@@H](C)O [ZElan077] (H-K(Dansyl)SSHNARLRTR-NH2)		0.73	0.52	0.20	0.76	0.54				
CC(C)C[C@H](NC(=O)[C@H](C)NC(=O)[C@H](CCCNC(=N)N)NC(=O)[C@H](CC(N)=O)NC(=O)[C@H](Cc1c[nH]cn1)NC(=O)[C@H](CO)NC(=O)[C@H](CO)NC(=O)[C@@H](N)CCCCNS(=O)(=O)c1cccc2c(N(C)C)cccc12)C(=O)N[C@@H](CCCNC(=N)N)C(=O)N[C@H](C(=O)N[C@@H](CCCNC(=N)N)C(N)=O)[C@@H](C)O [ZElan078] (H-K(Dansyl)SSHNRALRTR-NH2)		0.68	0.47	0.11	0.87	0.69				
C[C@H](NC(=O)[C@H](CCCNC(=N)N)NC(=O)[C@H](CCCNC(=N)N)NC(=O)[C@H](CC(N)=O)NC(=O)[C@H](Cc1c[nH]cn1)NC(=O)[C@H](CO)NC(=O)[C@H](CO)NC(=O)[C@@H](N)CCCCNS(=O)(=O)c1cccc2c(N(C)C)cccc12)C(=O)N[C@@H](CCCNC(=N)N)C(=O)N[C@H](C(=O)N[C@@H](CCCNC(=N)N)C(N)=O)[C@@H](C)O [ZElan079] (H-K(Dansyl)SSHNRRARTR-NH2)		0.83	0.53	0.31	0.97	0.68				
CC(C)C[C@H](NC(=O)[C@H](CCCNC(=N)N)NC(=O)[C@H](CCCNC(=N)N)NC(=O)[C@H](CC(N)=O)NC(=O)[C@H](Cc1c[nH]cn1)NC(=O)[C@H](CO)NC(=O)[C@H](CO)NC(=O)[C@@H](N)CCCCNS(=O)(=O)c1cccc2c(N(C)C)cccc12)C(=O)N[C@@H](C)C(=O)N[C@H](C(=O)N[C@@H](CCCNC(=N)N)C(N)=O)[C@@H](C)O [ZElan080] (H-K(Dansyl)SSHNRRLATR-NH2)		0.67	0.38	0.23	0.84	0.45				
CC(C)C[C@H](NC(=O)[C@H](CCCNC(=N)N)NC(=O)[C@H](CCCNC(=N)N)NC(=O)[C@H](CC(N)=O)NC(=O)[C@H](Cc1c[nH]cn1)NC(=O)[C@H](CO)NC(=O)[C@H](CO)NC(=O)[C@@H](N)CCCCNS(=O)(=O)c1cccc2c(N(C)C)cccc12)C(=O)N[C@@H](CCCNC(=N)N)C(=O)N[C@@H](C)C(=O)N[C@@H](CCCNC(=N)N)C(N)=O [ZElan081] (H-K(Dansyl)SSHNRRLRAR-NH2)				0.01	0.89	0.47				
CC(C)C[C@H](NC(=O)[C@H](CCCNC(=N)N)NC(=O)[C@H](CCCNC(=N)N)NC(=O)[C@H](CC(N)=O)NC(=O)[C@H](Cc1c[nH]cn1)NC(=O)[C@H](CO)NC(=O)[C@H](CO)NC(=O)[C@@H](N)CCCCNS(=O)(=O)c1cccc2c(N(C)C)cccc12)C(=O)N[C@@H](CCCNC(=N)N)C(=O)N[C@H](C(=O)N[C@@H](C)C(N)=O)[C@@H](C)O [ZElan082] (H-K(Dansyl)SSHNRRLRTA-NH2)				0.00	0.92	0.40				
CC(C)C[C@H](NC(=O)[C@H](CCCNC(=N)N)NC(=O)[C@H](CO)NC(=O)[C@@H](NC(=O)[C@H](CCCCN)NC(=O)[C@H](CC(N)=O)NC(=O)[C@H](CCCNC(=N)N)NC(=O)[C@@H](NC(=O)[C@H](CC(N)=O)NC(=O)[C@H](CCCNC(=N)N)NC(=O)[C@@H](N)CCCCNS(=O)(=O)c1cccc2c(N(C)C)cccc12)[C@@H](C)O)[C@@H](C)O)C(=O)N[C@@H](CO)C(=O)N[C@@H](C)C(=O)N[C@@H](CC(N)=O)C(=O)N1CCC[C@H]1C(=O)N[C@@H](Cc1c[nH]cn1)C(=O)N[C@@H](CCCNC(=N)N)C(=O)N[C@@H](CO)C(=O)N[C@@H](Cc1c[nH]cn1)C(=O)N[C@@H](CCCNC(=N)N)C(N)=O [ZElan084, reference compound] (H-K(Dansyl)RNTRNKTSRLSANPHRSHR-NH2)				1.06	1.16	0.77	0.93			
C[C@@H](O)[C@H](NC(=O)[C@H](CO)NC(=O)[C@H](CC(N)=O)NC(=O)CNC(=O)[C@H](CC(N)=O)NC(=O)CNC(=O)[C@H](CS)NC(=O)[C@H](CS)NC(=O)[C@H](CC(N)=O)NC(=O)[C@H](Cc1ccc(O)cc1)NC(=O)[C@H](CC(=O)O)NC(=O)CNC(=O)[C@@H]1CCCN1C(=O)[C@H](CCC(=O)O)NC(=O)[C@@H](N)CCCCNS(=O)(=O)c1cccc2c(N(C)C)cccc12)C(=O)NCC(=O)O [ZElan090] (H-K(Dansyl)EPGDYNCCGNGNSTG-OH; C-terminus assumed)								2.06	1.54	2.16
H-K(Dansyl)GRNHDVVSSNTHKSYRSPRSASYPRLSNDRTDRTEPAPSS-NH2 [ZElan083, reference compound]				0.43	1.03	0.88	0.63			
H-K(Dansyl)SARDSGPAEDGSRAVRLNGVENANTRKSSRSNPRGRRHPGG-NH2 [ZElan024]	inhibited									

Source: patent US6703362B1, “Random peptides that bind to gastro-intestinal tract (GIT) transport receptors and related methods” (Cytogen Corporation, priority 1997, dated 2004)
